Columns and labels:
[1] = target: Calcium/calmodulin-dependent protein kinase type II subunit delta (Homo sapiens) (UniProt Q13557); details: Compound concentration 100.0 nM
[2] = target: Proto-oncogene tyrosine-protein kinase ROS (Homo sapiens) (UniProt P08922); details: Compound concentration 100.0 nM
[3] = target: Dual specificity mitogen-activated protein kinase kinase 4 (Homo sapiens) (UniProt P45985); details: Compound concentration 100.0 nM
[4] = target: Focal adhesion kinase 1 (Homo sapiens) (UniProt Q05397); details: Compound concentration 100.0 nM
[5] = target: Tyrosine-protein kinase Tec (Homo sapiens) (UniProt P42680); details: Compound concentration 100.0 nM
[6] = target: Non-receptor tyrosine-protein kinase TNK1 (Homo sapiens) (UniProt Q13470); details: Compound concentration 100.0 nM
[7] = target: SRSF protein kinase 1 (Homo sapiens) (UniProt Q96SB4); details: Compound concentration 100.0 nM
[8] = target: Tyrosine-protein kinase Mer (Homo sapiens) (UniProt Q12866); details: Compound concentration 100.0 nM
[9] = target: Mitogen-activated protein kinase 4 (Homo sapiens) (UniProt P31152); details: Compound concentration 100.0 nM
[10] = target: Casein kinase I isoform alpha-like (Homo sapiens) (UniProt Q8N752); details: Compound concentration 100.0 nM
[11] = target: Beta-2 adrenergic receptor (Homo sapiens) (UniProt P07550); details: Compound concentration 10.0 uM
[12] = target: D(2) dopamine receptor (Homo sapiens) (UniProt P14416); details: Compound concentration 10.0 uM
[13] = target: D(3) dopamine receptor (Homo sapiens) (UniProt P35462); details: Compound concentration 10.0 uM
[14] = system: ALK tyrosine kinase receptor (Homo sapiens), Q9UM73 [C1156Y]; details: Compound concentration 100.0 nM
[15] = target: Alpha-1B adrenergic receptor (Homo sapiens) (UniProt P35368); details: Compound concentration 10.0 uM
[16] = target: Serine/threonine-protein kinase RIO3 (Homo sapiens) (UniProt O14730); details: Compound concentration 100.0 nM
Serine/threonine-protein kinase RIO3 (Homo sapiens), sequence (O14730 whole entry): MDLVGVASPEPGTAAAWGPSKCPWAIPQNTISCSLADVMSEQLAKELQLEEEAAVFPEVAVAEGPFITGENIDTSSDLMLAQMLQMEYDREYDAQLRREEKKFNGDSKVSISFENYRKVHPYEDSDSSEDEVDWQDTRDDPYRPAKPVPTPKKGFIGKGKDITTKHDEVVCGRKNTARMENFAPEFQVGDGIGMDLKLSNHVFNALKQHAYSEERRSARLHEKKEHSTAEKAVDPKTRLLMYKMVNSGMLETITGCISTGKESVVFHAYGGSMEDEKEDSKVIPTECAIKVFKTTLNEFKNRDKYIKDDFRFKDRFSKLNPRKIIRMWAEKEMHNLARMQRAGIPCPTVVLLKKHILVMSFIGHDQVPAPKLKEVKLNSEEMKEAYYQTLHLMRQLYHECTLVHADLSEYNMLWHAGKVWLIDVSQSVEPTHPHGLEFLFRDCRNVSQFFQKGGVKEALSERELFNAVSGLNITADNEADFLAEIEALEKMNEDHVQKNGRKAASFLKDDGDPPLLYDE

[17] = target: Serine/threonine-protein kinase haspin (Homo sapiens) (UniProt Q8TF76); details: Compound concentration 100.0 nM
Serine/threonine-protein kinase haspin (Homo sapiens), sequence (Q8TF76 whole entry, canonical isoform): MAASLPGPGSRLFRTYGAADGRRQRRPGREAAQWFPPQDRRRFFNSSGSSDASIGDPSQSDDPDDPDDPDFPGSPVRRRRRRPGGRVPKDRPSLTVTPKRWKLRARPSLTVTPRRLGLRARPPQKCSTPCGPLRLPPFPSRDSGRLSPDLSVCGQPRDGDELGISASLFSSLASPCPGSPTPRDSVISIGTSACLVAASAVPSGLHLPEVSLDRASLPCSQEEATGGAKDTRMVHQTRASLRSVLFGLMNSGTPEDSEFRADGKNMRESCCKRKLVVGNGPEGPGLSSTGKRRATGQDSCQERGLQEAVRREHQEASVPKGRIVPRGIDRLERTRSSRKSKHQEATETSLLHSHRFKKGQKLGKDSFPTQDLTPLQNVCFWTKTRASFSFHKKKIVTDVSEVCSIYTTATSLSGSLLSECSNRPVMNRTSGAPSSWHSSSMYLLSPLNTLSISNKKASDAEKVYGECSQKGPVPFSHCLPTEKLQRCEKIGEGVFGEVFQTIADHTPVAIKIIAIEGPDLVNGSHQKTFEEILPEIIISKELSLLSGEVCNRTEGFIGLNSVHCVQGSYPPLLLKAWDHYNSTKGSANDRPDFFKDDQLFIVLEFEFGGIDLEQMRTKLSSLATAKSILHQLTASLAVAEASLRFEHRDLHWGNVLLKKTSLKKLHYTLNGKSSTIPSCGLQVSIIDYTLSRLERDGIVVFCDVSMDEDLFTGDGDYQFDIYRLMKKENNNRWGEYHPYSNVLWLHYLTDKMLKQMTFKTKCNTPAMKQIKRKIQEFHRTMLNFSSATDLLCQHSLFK

[18] = target: Phosphatidylinositol 4,5-bisphosphate 3-kinase catalytic subunit delta isoform (Homo sapiens) (UniProt O00329); details: Compound concentration 100.0 nM
[19] = system: Mast/stem cell growth factor receptor Kit (Homo sapiens), P10721 [D816H]; details: Compound concentration 100.0 nM
[20] = target: Serine/threonine-protein kinase Nek7 (Homo sapiens) (UniProt Q8TDX7); details: Compound concentration 100.0 nM
Serine/threonine-protein kinase Nek7 (Homo sapiens), sequence (Q8TDX7 whole entry, looked up): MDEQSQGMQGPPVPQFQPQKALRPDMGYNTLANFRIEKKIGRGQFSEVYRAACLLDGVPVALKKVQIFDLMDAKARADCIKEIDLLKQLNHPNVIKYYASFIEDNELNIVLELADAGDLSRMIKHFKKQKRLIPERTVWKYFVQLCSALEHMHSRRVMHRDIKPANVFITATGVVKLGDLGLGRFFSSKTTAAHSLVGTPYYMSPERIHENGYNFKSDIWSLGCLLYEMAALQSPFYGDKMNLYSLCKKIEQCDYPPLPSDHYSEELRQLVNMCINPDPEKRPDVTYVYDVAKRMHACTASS

[21] = target: Interleukin-1 receptor-associated kinase 3 (Homo sapiens) (UniProt Q9Y616); details: Compound concentration 100.0 nM
[22] = target: Beta-1 adrenergic receptor (Homo sapiens) (UniProt P08588); details: Compound concentration 10.0 uM
[23] = target: Receptor-interacting serine/threonine-protein kinase 4 (Homo sapiens) (UniProt P57078); details: Compound concentration 100.0 nM
[24] = target: Tyrosine-protein kinase receptor UFO (Homo sapiens) (UniProt P30530); details: Compound concentration 100.0 nM
[25] = target: Bone morphogenetic protein receptor type-1A (Homo sapiens) (UniProt P36894); details: Compound concentration 100.0 nM
[26] = target: MAP kinase-activated protein kinase 5 (Homo sapiens) (UniProt Q8IW41); details: Compound concentration 100.0 nM
MAP kinase-activated protein kinase 5 (Homo sapiens), sequence (Q8IW41 whole entry): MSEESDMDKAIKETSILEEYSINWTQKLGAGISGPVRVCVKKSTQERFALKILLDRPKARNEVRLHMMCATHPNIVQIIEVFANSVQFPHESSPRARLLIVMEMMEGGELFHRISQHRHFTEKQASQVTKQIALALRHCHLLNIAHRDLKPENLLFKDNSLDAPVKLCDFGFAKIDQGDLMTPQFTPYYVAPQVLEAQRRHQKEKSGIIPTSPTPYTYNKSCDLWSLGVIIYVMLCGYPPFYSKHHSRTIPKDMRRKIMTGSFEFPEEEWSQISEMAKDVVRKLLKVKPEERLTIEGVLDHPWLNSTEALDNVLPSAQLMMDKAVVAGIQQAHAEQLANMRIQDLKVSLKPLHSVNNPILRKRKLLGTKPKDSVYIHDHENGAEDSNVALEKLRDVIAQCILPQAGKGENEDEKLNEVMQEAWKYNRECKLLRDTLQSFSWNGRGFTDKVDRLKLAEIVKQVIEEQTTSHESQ

[27] = target: Testis-specific serine/threonine-protein kinase 3 (Homo sapiens) (UniProt Q96PN8); details: Compound concentration 100.0 nM
[28] = target: Serine/threonine-protein kinase pim-2 (Homo sapiens) (UniProt Q9P1W9); details: Compound concentration 100.0 nM
[29] = target: Serine/threonine-protein kinase 32C (Homo sapiens) (UniProt Q86UX6); details: Compound concentration 100.0 nM
[30] = target: Serine/threonine-protein kinase SIK1 (Homo sapiens) (UniProt P57059); details: Compound concentration 100.0 nM
[31] = target: Homeodomain-interacting protein kinase 3 (Homo sapiens) (UniProt Q9H422); details: Compound concentration 100.0 nM
[32] = target: cAMP-dependent protein kinase catalytic subunit PRKX (Homo sapiens) (UniProt P51817); details: Compound concentration 100.0 nM
[33] = target: Insulin receptor-related protein (Homo sapiens) (UniProt P14616); details: Compound concentration 100.0 nM
[34] = target: 5-hydroxytryptamine receptor 2A (Homo sapiens) (UniProt P28223); details: Compound concentration 10.0 uM
5-hydroxytryptamine receptor 2A (Homo sapiens), sequence (P28223 whole entry): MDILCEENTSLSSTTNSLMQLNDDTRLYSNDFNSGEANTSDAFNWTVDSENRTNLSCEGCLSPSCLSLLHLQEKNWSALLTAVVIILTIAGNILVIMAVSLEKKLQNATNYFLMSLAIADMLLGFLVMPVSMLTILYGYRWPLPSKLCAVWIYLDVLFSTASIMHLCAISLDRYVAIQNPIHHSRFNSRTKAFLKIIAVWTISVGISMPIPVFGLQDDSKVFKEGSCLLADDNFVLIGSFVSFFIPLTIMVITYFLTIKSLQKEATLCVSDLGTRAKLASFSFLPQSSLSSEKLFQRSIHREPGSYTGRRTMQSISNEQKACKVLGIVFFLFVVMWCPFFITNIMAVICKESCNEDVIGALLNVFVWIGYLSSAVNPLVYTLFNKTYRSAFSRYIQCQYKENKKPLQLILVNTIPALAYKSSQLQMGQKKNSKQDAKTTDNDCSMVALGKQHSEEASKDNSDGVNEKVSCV

[35] = target: Delta-type opioid receptor (Homo sapiens) (UniProt P41143); details: Compound concentration 10.0 uM
[36] = target: Megakaryocyte-associated tyrosine-protein kinase (Homo sapiens) (UniProt P42679); details: Compound concentration 100.0 nM
Megakaryocyte-associated tyrosine-protein kinase (Homo sapiens), sequence (P42679 whole entry, canonical isoform): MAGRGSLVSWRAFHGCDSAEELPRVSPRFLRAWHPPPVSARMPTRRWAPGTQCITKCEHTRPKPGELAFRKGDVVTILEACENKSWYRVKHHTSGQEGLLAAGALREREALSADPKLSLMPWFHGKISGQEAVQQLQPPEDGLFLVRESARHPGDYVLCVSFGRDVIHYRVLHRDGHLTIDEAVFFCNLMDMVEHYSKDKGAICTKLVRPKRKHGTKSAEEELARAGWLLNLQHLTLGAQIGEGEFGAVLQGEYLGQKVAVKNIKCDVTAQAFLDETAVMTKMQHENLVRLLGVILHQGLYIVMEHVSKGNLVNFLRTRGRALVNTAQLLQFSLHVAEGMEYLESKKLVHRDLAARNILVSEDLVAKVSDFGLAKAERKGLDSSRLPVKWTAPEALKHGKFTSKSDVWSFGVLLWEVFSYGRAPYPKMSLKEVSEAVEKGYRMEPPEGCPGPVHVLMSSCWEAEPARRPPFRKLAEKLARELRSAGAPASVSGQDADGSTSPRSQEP

[37] = system: Phosphatidylinositol 4,5-bisphosphate 3-kinase catalytic subunit alpha isoform (Homo sapiens), P42336 [E542K]; details: Compound concentration 100.0 nM
[38] = target: Myosin light chain kinase, smooth muscle (Homo sapiens) (UniProt Q15746); details: Compound concentration 100.0 nM
Myosin light chain kinase, smooth muscle (Homo sapiens), sequence (Q15746 whole entry): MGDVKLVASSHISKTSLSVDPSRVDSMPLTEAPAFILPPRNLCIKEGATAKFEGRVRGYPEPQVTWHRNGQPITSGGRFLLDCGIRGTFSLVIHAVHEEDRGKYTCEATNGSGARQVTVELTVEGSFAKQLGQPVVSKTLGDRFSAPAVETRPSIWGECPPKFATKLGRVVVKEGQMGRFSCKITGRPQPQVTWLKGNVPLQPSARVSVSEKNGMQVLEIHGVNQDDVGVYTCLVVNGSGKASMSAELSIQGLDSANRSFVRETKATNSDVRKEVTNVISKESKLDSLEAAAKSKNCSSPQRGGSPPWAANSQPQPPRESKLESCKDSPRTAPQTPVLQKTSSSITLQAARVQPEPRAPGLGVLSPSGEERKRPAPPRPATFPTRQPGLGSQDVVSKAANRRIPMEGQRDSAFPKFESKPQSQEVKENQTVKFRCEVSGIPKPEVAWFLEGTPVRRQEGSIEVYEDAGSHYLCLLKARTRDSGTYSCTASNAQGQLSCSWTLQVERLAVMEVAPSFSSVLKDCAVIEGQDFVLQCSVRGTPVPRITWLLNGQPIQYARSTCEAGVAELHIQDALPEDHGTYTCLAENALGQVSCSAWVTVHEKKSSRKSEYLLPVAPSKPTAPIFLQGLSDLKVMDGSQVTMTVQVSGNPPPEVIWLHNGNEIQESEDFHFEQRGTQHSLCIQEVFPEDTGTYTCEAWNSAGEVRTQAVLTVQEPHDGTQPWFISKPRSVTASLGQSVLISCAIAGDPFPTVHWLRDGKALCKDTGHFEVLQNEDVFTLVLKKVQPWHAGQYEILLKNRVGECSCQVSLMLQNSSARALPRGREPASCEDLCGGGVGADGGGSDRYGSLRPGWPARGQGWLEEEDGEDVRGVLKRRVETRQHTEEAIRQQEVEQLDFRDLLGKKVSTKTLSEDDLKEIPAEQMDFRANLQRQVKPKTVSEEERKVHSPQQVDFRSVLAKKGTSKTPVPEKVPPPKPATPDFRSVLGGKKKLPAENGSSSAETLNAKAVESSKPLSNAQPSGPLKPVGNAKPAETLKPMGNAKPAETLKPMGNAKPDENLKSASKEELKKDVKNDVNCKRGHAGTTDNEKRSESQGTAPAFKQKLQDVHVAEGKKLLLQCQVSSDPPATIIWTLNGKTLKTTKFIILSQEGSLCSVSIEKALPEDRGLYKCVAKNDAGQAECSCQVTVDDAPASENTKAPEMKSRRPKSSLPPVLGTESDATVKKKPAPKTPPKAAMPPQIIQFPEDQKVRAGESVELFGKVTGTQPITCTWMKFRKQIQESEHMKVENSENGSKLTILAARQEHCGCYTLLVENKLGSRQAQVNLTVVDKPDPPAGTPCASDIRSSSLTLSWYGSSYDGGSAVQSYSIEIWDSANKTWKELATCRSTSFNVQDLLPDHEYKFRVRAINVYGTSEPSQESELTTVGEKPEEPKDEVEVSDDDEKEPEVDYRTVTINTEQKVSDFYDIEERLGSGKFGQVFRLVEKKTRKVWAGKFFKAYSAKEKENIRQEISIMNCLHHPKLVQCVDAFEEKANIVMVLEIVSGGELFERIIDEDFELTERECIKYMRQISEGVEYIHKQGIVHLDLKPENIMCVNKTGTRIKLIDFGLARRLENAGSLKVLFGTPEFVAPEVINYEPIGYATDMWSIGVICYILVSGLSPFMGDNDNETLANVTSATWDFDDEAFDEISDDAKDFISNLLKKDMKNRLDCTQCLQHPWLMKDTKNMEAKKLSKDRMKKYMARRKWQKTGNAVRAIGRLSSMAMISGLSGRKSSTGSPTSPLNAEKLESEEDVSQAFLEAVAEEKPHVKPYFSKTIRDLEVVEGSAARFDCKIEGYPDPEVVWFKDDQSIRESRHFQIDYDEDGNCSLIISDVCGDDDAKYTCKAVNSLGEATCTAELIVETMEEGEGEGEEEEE

[39] = target: Cyclin-dependent kinase 14 (Homo sapiens) (UniProt O94921); details: Compound concentration 100.0 nM
[40] = target: Calcium-dependent protein kinase 1 (Plasmodium falciparum) (UniProt P62344); details: Compound concentration 100.0 nM
[41] = target: Rho-associated protein kinase 2 (Homo sapiens) (UniProt O75116); details: Compound concentration 100.0 nM
[42] = target: Receptor-interacting serine/threonine-protein kinase 2 (Homo sapiens) (UniProt O43353); details: Compound concentration 100.0 nM
[43] = target: Serine/threonine-protein kinase NIM1 (Homo sapiens) (UniProt Q8IY84); details: Compound concentration 100.0 nM
[44] = target: G protein-coupled receptor kinase 4 (Homo sapiens) (UniProt P32298); details: Compound concentration 100.0 nM
[45] = target: Cyclin-dependent kinase 11A (Homo sapiens) (UniProt Q9UQ88); details: Compound concentration 100.0 nM

Structure (SMILES): Cc1ccc(-c2cnc([C@@]3(O)CC[C@H](C(=O)O)C(C)(C)C3)s2)cc1Nc1cccc(C(F)(F)F)n1 [MRL-SYKi-NC]
- residual activity [1]: 87.2%
- residual activity [2]: 91.5%
- residual activity [3]: 81.2%
- residual activity [4]: 90.2%
- residual activity [5]: 91.2%
- residual activity [6]: 100%
- residual activity [7]: 89.7%
- residual activity [8]: 100%
- residual activity [9]: 100%
- residual activity [10]: 91.9%
- inhibition [11]: 1.6%
- inhibition [12]: -5.34%
- inhibition [13]: -8.44%
- residual activity [14]: 100%
- inhibition [15]: 7.9%
- residual activity [16]: 100%
- residual activity [17]: 47%
- residual activity [18]: 98.8%
- residual activity [19]: 61.4%
- residual activity [20]: 75.7%
- residual activity [21]: 93%
- inhibition [22]: 10.3%
- residual activity [23]: 92.8%
- residual activity [24]: 100%
- residual activity [25]: 100%
- residual activity [26]: 97.7%
- residual activity [27]: 100%
- residual activity [28]: 87.9%
- residual activity [29]: 100%
- residual activity [30]: 100%
- residual activity [31]: 88.3%
- residual activity [32]: 97.2%
- residual activity [33]: 86.1%
- inhibition [34]: 11.2%
- inhibition [35]: 25.1%
- residual activity [36]: 74.6%
- residual activity [37]: 87.4%
- residual activity [38]: 86.6%
- residual activity [39]: 100%
- residual activity [40]: 90.1%
- residual activity [41]: 85.3%
- residual activity [42]: 96.8%
- residual activity [43]: 100%
- residual activity [44]: 100%
- residual activity [45]: 100%

Structure (SMILES): Cc1cc(Nc2nccc(C)n2)cc(-c2cnc([C@@]3(O)CC[C@H](C(=O)O)C(C)(C)C3)s2)c1 [MRL-SYKi]
- residual activity [1]: 84.6%
- residual activity [2]: 97%
- residual activity [3]: 100%
- residual activity [4]: 99.9%
- residual activity [5]: 75.2%
- residual activity [6]: 100%
- residual activity [7]: 97.7%
- residual activity [8]: 81.5%
- residual activity [9]: 100%
- residual activity [10]: 100%
- inhibition [11]: 5.53%
- inhibition [12]: -3.52%
- inhibition [13]: -5.53%
- residual activity [14]: 100%
- inhibition [15]: 3.23%
- residual activity [16]: 77.2%
- residual activity [17]: 90.8%
- residual activity [18]: 100%
- residual activity [19]: 97.7%
- residual activity [20]: 92.9%
- residual activity [21]: 44.7%
- inhibition [22]: -9.08%
- residual activity [23]: 91.9%
- residual activity [24]: 100%
- residual activity [25]: 90.5%
- residual activity [26]: 100%
- residual activity [27]: 100%
- residual activity [28]: 100%
- residual activity [29]: 85.9%
- residual activity [30]: 94.3%
- residual activity [31]: 87.3%
- residual activity [32]: 100%
- residual activity [33]: 100%
- inhibition [34]: -4.23%
- inhibition [35]: 12.8%
- residual activity [36]: 100%
- residual activity [37]: 66.5%
- residual activity [38]: 92.9%
- residual activity [39]: 100%
- residual activity [40]: 100%
- residual activity [41]: 85.9%
- residual activity [42]: 83.8%
- residual activity [43]: 100%
- residual activity [44]: 100%
- residual activity [45]: 86.1%

Source: ChEMBL document CHEMBL4507285, “Data for DCP probe MRL-SYKi” (2021)
